Series [1] concerns U-251. In words: Cytotoxicity against human U251 cells incubated for 24 hrs by MTT assay. The format is functional, cell-based. Particulars: U-251, 24 h. In general terms: Tetrazolium assays rely on reduction of a dye to a coloured formazan, in cell work by metabolically active cells.
In series [2] the test system is MCF7. In words: Cytotoxicity against human MCF7 cells incubated for 24 hrs by MTT assay. Particulars: MCF7, 24 h. The format is functional, cell-based.
Series [3] relates to SW480. The experiment in a line: Cytotoxicity against human SW480 cells incubated for 24 hrs by MTT assay. The note with it: SW480, 24 h. It is filed as functional, cell-based.
The test system of series [4] is L02. In words: Cytotoxicity against human L02 cells incubated for 24 hrs by MTT assay. The format is cell-based. The note with it: l02, 24 h.
The test system of series [5] is HUVEC. The experiment in a line: Induction of ROS scavenging activity in HUVEC assessed as reduction in high glucose-induced intracellular ROS level at 20 uM incubated for 6 hrs by DCFH-DA/Hoechst 33342 staining based assay relative to control. The format is functional, Homo sapiens. Also on record: scale not given: the % may be the effect or the level left.
Series [6] has as its system HUVEC. In words: Induction of ROS scavenging activity in HUVEC assessed as reduction in high glucose-induced intracellular ROS level at 5 uM incubated for 6 hrs by DCFH-DA/Hoechst 33342 staining based assay relative to control. It is filed as functional, Homo sapiens. Also on record: scale not given: the % may be the effect or the level left.

Structures are written as SMILES. Bounds are passed on as bounds.

The term IC50 denotes the concentration at which inhibition is half-maximal. Turning to `C=C(CC[C@@H](C)[C@H]1CC[C@H]2C3=C(C(=O)C[C@]12C)[C@@]1(C)CC[C@@H](O)[C@](C)(O)[C@@H]1C[C@@H]3O)[C@@H](C)C(=O)O`, the IC50 in series [1], in series [2] and in series [3] was more than 100 µM in each case. Besides, in series [4], the Activity entry is reported as “Non-Toxic”.
As for `C=C(CC[C@@H](C)[C@H]1CC[C@H]2C3=C(C(=O)[C@H](O)[C@]12C)[C@@]1(C)CC[C@@H](O)[C@@H](C)[C@@H]1CC3=O)[C@@H](C)C(=O)O`, the IC50 in series [1], in series [2] and in series [3] was more than 100 µM throughout. Also, the Activity result is recorded as “Non-Toxic” in series [4] and 70.5% in series [5].
Regarding `C=C(CC[C@@H](C)[C@H]1CC[C@H]2C3=C(C(=O)[C@H](O)[C@]12C)[C@@]1(C)CC[C@@H](O)[C@@H](C)[C@@H]1CC3=O)[C@H](C)C(=O)O`, the IC50 in series [1], in series [2] and in series [3] was more than 100 µM in each case. Besides, in series [4], the Activity entry is on record as “Non-Toxic”.
`C=C(CC[C@@H](C)[C@H]1CC[C@H]2C3=C(C(=O)C[C@]12C)[C@@]1(C)CCC(=O)[C@@H](C)[C@@H]1C[C@@H]3O)[C@H](C)C(=O)O`: the IC50 in series [1], in series [2] and in series [3] was more than 100 µM each time. Further, in series [4], the Activity entry is reported as “Non-Toxic”.
Take `C=C(CC[C@@H](C)[C@H]1CC[C@H]2C3=C(C(=O)C[C@]12C)[C@@]1(C)CCC(=O)[C@@H](C)[C@@H]1C[C@@H]3O)[C@@H](C)C(=O)O`: the IC50 in series [1], in series [2] and in series [3] was more than 100 µM throughout. Besides, the Activity entry in series [4] is reported as “Non-Toxic”.
On to `C=C(CC[C@@H](C)[C@H]1CC[C@H]2C3=C(C(=O)C[C@]12C)[C@@]1(C)CC[C@@H](O)[C@](C)(O)[C@@H]1C[C@@H]3O)[C@H](C)C(=O)O`, for which the IC50 in series [1], in series [2] and in series [3] was more than 100 µM in each case. The Activity result in series [4] is recorded as “Non-Toxic”.
For `C=C(CC[C@@H](C(=O)O)[C@H]1C[C@H](O)[C@@]2(C)C3=CC[C@H]4C(C)(C)[C@@H](O)CC[C@]4(C)C3=CC[C@]12C)C(C)C`, the IC50 in series [1], in series [2] and in series [3] was more than 100 µM in each case. Besides, in series [4], the Activity entry was “Non-Toxic”.
Regarding `C=C(CC[C@@H](C)[C@H]1CC[C@H]2C3=CC[C@H]4[C@H](C)C(=O)CC[C@]4(C)C3=C[C@H](O)[C@]12C)C(C)C`, the IC50 in series [1], in series [2] and in series [3] was more than 100 µM each time. Further, the Activity entry in series [4] was “Non-Toxic”; in series [5], 69.9%.
In the case of `C=C(CC[C@@H](C)[C@H]1CC[C@H]2C3=CC[C@H]4[C@H](C)C(=O)CC[C@]4(C)C3=CC[C@]12C)C(C)C`, the IC50 in series [1], in series [2] and in series [3] was more than 100 µM each time. The Activity result in series [4] is “Non-Toxic”; in series [5] it was 63.9%.
For the compound `C=C(CC[C@@H](C)[C@H]1CC[C@@]2(O)C3=C(C(=O)C[C@]12C)[C@@]1(C)CCC(=O)[C@@H](C)[C@@H]1CC3)C(C)C`, the IC50 in series [1], in series [2] and in series [3] was more than 100 µM each time. Also, the Activity result in series [4] was “Non-Toxic”.
Regarding `C/C=C(\CO)CC[C@@H](C)[C@H]1CC[C@H]2C3=C(C(=O)C[C@]12C)[C@@]1(C)CC[C@@H](O)[C@](C)(O)[C@@H]1C[C@@H]3O`, the values for the IC50 in series [1], in series [2] and in series [3] were 9.2 µM, more than 100 µM and more than 100 µM, respectively. In series [4], the Activity entry is “Non-Toxic”.
As for `CC1=C2C3=C(CC[C@]2(C)[C@@H]([C@H]2CC[C@](CO)(C(C)C)OC2)C1)[C@@]1(C)CC[C@H](O)C(C)(C)[C@@H]1CC3`, the IC50 in series [1], in series [2] and in series [3] was more than 100 µM throughout. For the same compound, the Activity entry in series [4] is recorded as “Non-Toxic”.
As to `C=C(CC[C@@H](C)[C@H]1CC[C@H]2C3=C(C(=O)C[C@]12C)[C@@]1(C)CC[C@@H](O)[C@H](O)[C@@H]1C[C@@H]3O)[C@@H](C)C(=O)O`, the IC50 in series [1], in series [2] and in series [3] was more than 100 µM throughout. In addition, the Activity result in series [4] was “Non-Toxic”.
On to `C=C(CC[C@@H](C)[C@H]1CC[C@H]2C3=C(C(=O)C[C@]12C)[C@@]1(C)CC[C@@H](O)[C@H](O)[C@@H]1C[C@@H]3O)[C@H](C)C(=O)O`, for which the IC50 in series [1], in series [2] and in series [3] was more than 100 µM throughout. In addition, the Activity result in series [4] is “Non-Toxic”.
In the case of `C=C(CC[C@@H](C)[C@H]1CC[C@H]2C3=CC[C@H]4[C@H](C)[C@@H](O)CC[C@]4(C)C3=C[C@@H](O)[C@]12C)C(C)C`, the IC50 worked out at 15.6 µM in series [1], 8.1 µM in series [2] and 16.4 µM in series [3]. The Activity entry in series [4] is on record as “Non-Toxic”.
For `C=C(CC[C@@H](C)[C@H]1CC[C@H]2C3=CC[C@H]4[C@H](C)C(=O)CC[C@]4(C)C3=C[C@@H](O)[C@]12C)C(C)C`, the IC50 in series [1], in series [2] and in series [3] was more than 100 µM throughout. Besides, the Activity entry in series [4] was “Non-Toxic”.
Consider `C=C(CC[C@@H](C)[C@H]1CC[C@H]2C3=C(C(=O)C[C@]12C)[C@@]1(C)CCC(=O)[C@@H](C)[C@@H]1C[C@H]3O)C(C)C`, for which the IC50 in series [1], in series [2] and in series [3] was more than 100 µM throughout. Besides, the Activity result was “Non-Toxic” in series [4] and 66.7% in series [5].
Regarding `C/C=C(/CO)CC[C@@H](C)[C@H]1CC[C@H]2C3=C(C(=O)C[C@]12C)[C@@]1(C)CC[C@@H](O)[C@](C)(O)[C@@H]1C[C@@H]3O`, the IC50 in series [1] was 10.4 µM; in series [2], more than 100 µM; in series [3] it was more than 100 µM. Moreover, the Activity result in series [4] is listed as “Non-Toxic”.
For `C=C1CC[C@H](O)C/C1=C/C=C1\CCC[C@]2(C)[C@@H]([C@H](C)CCCC(C)C)CC[C@@H]12` [CHOLECALCIFEROL], the Activity in series [6] stood at 65.4%.
On to `C=C(CC[C@@H](C(=O)O)[C@H]1CC[C@@]2(C)C3=CC[C@H]4C(C)(C)[C@@H](O)CC[C@]4(C)C3=CC[C@]12C)C(C)C` [DEHYDROEBURICOIC ACID], for which the IC50 in series [1], in series [2] and in series [3] was more than 100 µM each time. Also, the Activity entry in series [4] is listed as “Non-Toxic”; in series [5], 69.8%.
Take `C=C(CC[C@@H](C(=O)O)[C@H]1CC[C@@]2(C)C3=C(CC[C@]12C)[C@@]1(C)CC[C@H](O)C(C)(C)[C@@H]1CC3)C(C)C` [EBURICOIC ACID]: the IC50 in series [1], in series [2] and in series [3] was more than 100 µM in each case. Further, the Activity entry in series [4] is reported as “Non-Toxic”.
As for `CCc1c2c(nc3ccc(OC(=O)N4CCC(N5CCCCC5)CC4)cc13)-c1cc3c(c(=O)n1C2)COC(=O)[C@]3(O)CC` [IRINOTECAN], in series [2], 0.8 µM corresponded to half-maximal inhibition (IC50).
For the compound `C=C(CC[C@@H](C(=O)O)[C@H]1C[C@H](O)[C@@]2(C)C3=C(CC[C@]12C)[C@@]1(C)CC[C@H](O)C(C)(C)[C@@H]1CC3)C(C)C` [SULFURENIC ACID], the IC50 in series [1], in series [2] and in series [3] was more than 100 µM throughout. Also, in series [4], the Activity result is “Non-Toxic”.
In the case of `Cn1nnc2c(C(N)=O)ncn2c1=O` [TEMOZOLOMIDE], the IC50 in series [1] came to 36.4 µM.

(Values after ChEMBL document CHEMBL4342448, “Antcamphorols A-K, Cytotoxic and ROS Scavenging Triterpenoids from Antrodia camphorata” (J Nat Prod, 2020).)
